Among the test systems are HT29 colon; K-562 leukemia; NCI-H23 lung; OVCAR-8 ovarian; HOP-92 NSCLC; MCF7 breast; MALME-3M melanoma; HCT-116 colon; A498 renal; OVCAR-3 ovarian.
What all share (experiment): NCI-60 cell line screen, 48 h

In PubChem BioAssay (NCI) one finds TGI and GI50 data, which are given here for eleven compounds.

Structures are written as SMILES. Values joined by “and” are separate entries in the source; they are usually repeats but may differ in a detail not shown here. Equal values may be shown once.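 Test compounds were applied to cells in 96-well plates for 48 hours at 5 doses. Here, GI50 denotes the concentration required for 50% inhibition of growth. TGI marks complete inhibition of growth.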

Take `CCCCCCNCCCNc1c2ccccc2nc2cccc([N+](=O)[O-])c12`: the TGI is 0.0268 µM and 0.124 µM in the assay with HT29 colon; 0.0212 µM in the assay on K-562 leukemia; 0.0253 µM and 0.0599 µM with NCI-H23 lung; 0.136 µM and 0.17 µM in the assay with OVCAR-8 ovarian; 0.0792 µM and 0.0693 µM with HOP-92 NSCLC; 0.112 µM and 0.103 µM in the assay on MCF7 breast. Further, the TGI in the assay with MALME-3M melanoma is 0.0628 µM and 0.0572 µM; in the assay with HCT-116 colon, 1.36 µM; in the assay on A498 renal it was 0.321 µM and 0.327 µM; in the assay on OVCAR-3 ovarian, 0.0477 µM and 0.206 µM. Moreover, the GI50 in the assay with NCI-H23 lung is 0.0159 µM; in the assay with MALME-3M melanoma, 0.0168 µM; in the assay with A498 renal, 0.0931 µM; in the assay with OVCAR-3 ovarian it was 0.0395 µM.
On to `CNC(=O)CN1CCC(Oc2cc3c(Nc4cccc(Cl)c4F)ncnc3cc2OC)CC1`, for which the GI50 is 11.6 µM and > 7.06 µM with HT29 colon; 16.8 µM and > 10 µM in the assay on K-562 leukemia; 18.2 µM and > 7.11 µM in the assay on NCI-H23 lung; 8.25 µM and > 5.04 µM in the assay with OVCAR-8 ovarian; 1.9 µM and 1.29 µM in the assay with HOP-92 NSCLC; 13.8 µM and > 5 µM in the assay with MCF7 breast. The GI50 in the assay on MALME-3M melanoma is 16.1 µM and > 10 µM; in the assay on HCT-116 colon, 14.8 µM and > 5.44 µM; in the assay on A498 renal it was 1.1 µM and 1.33 µM; with OVCAR-3 ovarian it was 3.83 µM and 2.34 µM. Besides, the TGI is 32.6 µM and > 10 µM in the assay on HT29 colon; 45.6 µM and > 10 µM in the assay on K-562 leukemia; above 58.5 µM in the assay on NCI-H23 lung; above 77.3 µM in the assay on OVCAR-8 ovarian; 16.4 µM and > 9.33 µM with HOP-92 NSCLC; above 74.5 µM with MCF7 breast. Also, the TGI is above 58 µM in the assay on MALME-3M melanoma; 28.5 µM and > 10 µM in the assay with HCT-116 colon; 11.5 µM and > 10 µM in the assay with A498 renal; 18.8 µM and > 10 µM with OVCAR-3 ovarian.
With `Nc1c2ccccc2nc2ccccc12` (tested in a mixture with another compound), the GI50 is 1.08 µM with HT29 colon; 3.81 µM in the assay on K-562 leukemia; 1.94 µM in the assay on NCI-H23 lung; 0.891 µM in the assay on OVCAR-8 ovarian; 1.84 µM in the assay with HOP-92 NSCLC; 1.59 µM in the assay on MCF7 breast. In addition, the GI50 is 2.34 µM in the assay on MALME-3M melanoma, 0.849 µM in the assay on HCT-116 colon, 1.12 µM in the assay on A498 renal and 2.29 µM in the assay with OVCAR-3 ovarian. Further, the TGI was determined as 3.48 µM in the assay on HT29 colon; 12.1 µM in the assay on K-562 leukemia; 5.68 µM in the assay on NCI-H23 lung; 6.44 µM in the assay on OVCAR-8 ovarian; 6.98 µM with HOP-92 NSCLC; 9.72 µM in the assay on MCF7 breast. For the same compound, the TGI in the assay with MALME-3M melanoma was found to be 5.28 µM; with HCT-116 colon it was 8.48 µM; with A498 renal, 2.62 µM; with OVCAR-3 ovarian, 6.15 µM.
As for `C[C@@H]1OCC2(CCN(c3cnc(Sc4ccnc(N)c4Cl)c(N)n3)CC2)[C@@H]1N`, the GI50 in the assay with HT29 colon was above 100 µM; in the assay with K-562 leukemia it was 0.397 µM; with NCI-H23 lung, 1.34 µM; in the assay with OVCAR-8 ovarian, above 89.5 µM; in the assay on HOP-92 NSCLC, 0.0469 µM; in the assay on MCF7 breast it was above 100 µM. Besides, the GI50 was above 100 µM in the assay on MALME-3M melanoma, above 100 µM in the assay on HCT-116 colon, 0.128 µM in the assay on A498 renal and above 100 µM with OVCAR-3 ovarian. The TGI in the assay with HT29 colon is above 100 µM; in the assay on K-562 leukemia, above 100 µM; with NCI-H23 lung, above 100 µM; in the assay on OVCAR-8 ovarian, above 100 µM; with HOP-92 NSCLC it was 0.788 µM; in the assay with MCF7 breast it was above 100 µM. Further, the TGI in the assay with MALME-3M melanoma was above 100 µM; in the assay with HCT-116 colon it was above 100 µM; in the assay on A498 renal, 4.6 µM; in the assay with OVCAR-3 ovarian it was above 100 µM.
Turning to `CCCCCC/C=C1\CCC(CN(C)C)C1=O` (stereo not drawn), the TGI with HT29 colon worked out at 14.5 µM; with K-562 leukemia, 7.64 µM; in the assay on NCI-H23 lung, 23.2 µM; in the assay with OVCAR-8 ovarian, 13.5 µM; in the assay on HOP-92 NSCLC, 28.8 µM; in the assay with MCF7 breast, 14.7 µM. In addition, the TGI with MALME-3M melanoma was found to be 20.7 µM; in the assay on HCT-116 colon, 9.55 µM; in the assay on A498 renal, 32.1 µM; in the assay with OVCAR-3 ovarian, 17.7 µM.
In the case of `O=C(O)c1ccccc1Nc1ccc2nnc(-c3ccncc3)n2n1`, the GI50 in the assay on HT29 colon is 5.66 µM; with K-562 leukemia, 15.1 µM; in the assay with NCI-H23 lung, 14.1 µM; in the assay on OVCAR-8 ovarian, 8.1 µM; with HOP-92 NSCLC it was 16.9 µM; in the assay on MCF7 breast it was 2.85 µM. Besides, the GI50 was 7.97 µM in the assay with MALME-3M melanoma, 4.09 µM in the assay with HCT-116 colon, 15.5 µM in the assay on A498 renal and 9.7 µM in the assay on OVCAR-3 ovarian. For the same compound, the TGI with HT29 colon is 24.2 µM; in the assay on K-562 leukemia, above 100 µM; with NCI-H23 lung, 54.2 µM; in the assay with OVCAR-8 ovarian, 41.7 µM; in the assay on HOP-92 NSCLC it was 35.8 µM; with MCF7 breast, 24.6 µM. Also, the TGI turned out to be 26.3 µM in the assay with MALME-3M melanoma, 21 µM in the assay with HCT-116 colon, 29.5 µM in the assay on A498 renal and 24.8 µM in the assay with OVCAR-3 ovarian.
With `Clc1ccc2c(NCCNc3nc(N4CCCC4)nc4ccccc34)ccnc2c1`, the GI50 is 0.0943 µM with HT29 colon; 0.118 µM in the assay with K-562 leukemia; 2.05 µM in the assay with NCI-H23 lung; 1.65 µM with OVCAR-8 ovarian; 1.23 µM in the assay on HOP-92 NSCLC; 0.156 µM in the assay with MCF7 breast. In addition, the GI50 with MALME-3M melanoma is 1.91 µM; in the assay on HCT-116 colon, 0.309 µM; in the assay on A498 renal it was 1.8 µM; in the assay on OVCAR-3 ovarian it was 0.492 µM. Moreover, the TGI worked out at 1.39 µM in the assay with HT29 colon; 3.29 µM in the assay with K-562 leukemia; 5.22 µM with NCI-H23 lung; 4.12 µM with OVCAR-8 ovarian; 2.66 µM with HOP-92 NSCLC; 3.86 µM in the assay on MCF7 breast. Further, the TGI with MALME-3M melanoma was 3.6 µM; with HCT-116 colon, 1.02 µM; in the assay on A498 renal it was 3.4 µM; with OVCAR-3 ovarian, 1.07 µM.
For the compound `N#Cc1nn(-c2cc(=O)[nH]c3ccc(Br)cc23)c(N)c1C#N`, the GI50 in the assay on HT29 colon is above 100 µM; in the assay with K-562 leukemia, above 100 µM; in the assay with NCI-H23 lung, 51.5 µM; with OVCAR-8 ovarian, above 100 µM; with HOP-92 NSCLC it was above 100 µM; with MCF7 breast, 64.1 µM. The GI50 with MALME-3M melanoma, with HCT-116 colon, in the assay with A498 renal and in the assay with OVCAR-3 ovarian was above 100 µM throughout. For the same compound, the TGI in the assay with HT29 colon, in the assay on K-562 leukemia, in the assay with NCI-H23 lung, in the assay on OVCAR-8 ovarian, with HOP-92 NSCLC and in the assay on MCF7 breast was above 100 µM in each case. The TGI in the assay on MALME-3M melanoma, in the assay on HCT-116 colon, in the assay with A498 renal and with OVCAR-3 ovarian was above 100 µM throughout.
Turning to `COc1cc(N2CCC(N3CCN(C)CC3)CC2)ccc1Nc1ncc(Cl)c(Nc2ccccc2S(=O)(=O)C(C)C)n1`, the GI50 is 0.0612 µM in the assay on HT29 colon; 1.67 µM with K-562 leukemia; 1.05 µM in the assay with NCI-H23 lung; 2.1 µM with OVCAR-8 ovarian; 0.0476 µM in the assay with HOP-92 NSCLC; 0.114 µM in the assay on MCF7 breast. Also, the GI50 in the assay on MALME-3M melanoma is 1.32 µM; in the assay on HCT-116 colon it was 0.358 µM; in the assay on A498 renal, 0.263 µM; with OVCAR-3 ovarian, 2.22 µM. For the same compound, the TGI with HT29 colon stood at 0.617 µM; in the assay on K-562 leukemia it was 5.41 µM; in the assay with NCI-H23 lung, 8.1 µM; in the assay on OVCAR-8 ovarian it was 7.76 µM; in the assay on HOP-92 NSCLC, 0.433 µM; in the assay on MCF7 breast, 6.75 µM. The TGI with MALME-3M melanoma is 3.46 µM; in the assay with HCT-116 colon, 1.64 µM; with A498 renal it was 1.73 µM; with OVCAR-3 ovarian, 6.87 µM.
Consider `O=S(=O)(Nc1ccccn1)c1ccc(N=Nc2ccc(O)c3ncccc23)cc1`, for which the GI50 in the assay on HT29 colon was 4.53 µM; in the assay on K-562 leukemia, 0.734 µM; in the assay with NCI-H23 lung it was 2.34 µM; in the assay on OVCAR-8 ovarian, 0.715 µM; in the assay with HOP-92 NSCLC, 1.21 µM; with MCF7 breast, 1.05 µM. Besides, the GI50 in the assay with MALME-3M melanoma is 2.59 µM; with HCT-116 colon, 0.888 µM; in the assay with A498 renal, 1.77 µM; with OVCAR-3 ovarian it was 1.13 µM. Moreover, the TGI in the assay with HT29 colon was 19.3 µM; with K-562 leukemia it was above 37.7 µM; with NCI-H23 lung, 16 µM; in the assay on HOP-92 NSCLC it was 5.34 µM; in the assay with MCF7 breast, 8.4 µM; in the assay with MALME-3M melanoma, 7.03 µM. Further, the TGI in the assay on HCT-116 colon is 22.6 µM; in the assay with A498 renal, 5.73 µM; with OVCAR-3 ovarian it was 11.4 µM.
Take `COc1cc(C)c(NC(=O)CN(C)C)cc1Nc1nc(Nc2cccc(F)c2C(N)=O)c2cc[nH]c2n1`: the GI50 with HT29 colon was 0.00981 µM; in the assay with K-562 leukemia it was 1.41 µM; with NCI-H23 lung it was 0.586 µM; in the assay on OVCAR-8 ovarian, 1.64 µM; in the assay with HOP-92 NSCLC, 0.0124 µM; with MCF7 breast, 0.0138 µM. In addition, the GI50 was 1.91 µM in the assay with MALME-3M melanoma, 0.686 µM in the assay with HCT-116 colon, 1.25 µM in the assay on A498 renal and 0.682 µM with OVCAR-3 ovarian. Also, the TGI with HT29 colon is 0.725 µM; in the assay on K-562 leukemia it was 6.38 µM; with NCI-H23 lung it was 6.02 µM; with OVCAR-8 ovarian, 6.32 µM; in the assay with HOP-92 NSCLC it was 2.66 µM; with MCF7 breast, 2.9 µM. Further, the TGI in the assay on MALME-3M melanoma worked out at 7.47 µM; in the assay on HCT-116 colon it was 4.31 µM; with A498 renal, 6.02 µM; with OVCAR-3 ovarian, 1.86 µM.
